Laboratory results from US20240315986A1, “PHARMACEUTICAL COMPOSITION FOR TREATMENT OF MULTIPLE SYSTEM ATROPHY” (THE UNIVERSITY OF TOKYO, priority 2021, published 2024).
Like-named read-outs stand apart in the source and are kept apart here.

How the values were obtained:
[1] = test system: multiple system atrophy patients; experiment: Phase 2 clinical trial of MSA-01 in multiple system atrophy patients; format: in vivo, human
Method: For a group of 21 patients with COQ2 mutation and a group of 108 patients without COQ2 mutation, 61 patients were administered with the MSA-01 and 68 patients were administered with the placebo for each group. Among 129 patients in total in the patient groups, 99 patients had the MSA-C and 30 patients had the MSA-P. The 129 patients who were confirmed to be eligible during 4-week observation period were randomly assigned to be administered with the MSA-01 or the placebo once per day after breakfast (doses of the MSA-01 or the placebo ascend every 2 weeks to 300, 600, 900, 1,200, and 1,500 mg/day, FIG. 2), and evaluation items according to main evaluation items were measured at Weeks 12, 24, 36, and 48.
Changes (LS means) of UMSARS part 2 scores at Weeks 12, 24, 36, and 48 from the baseline (unified multiple-system atrophy rating scale part 2; Wenning G K, Tison F, Seppi K, et al. Development and validation of the Unified Multiple System Atrophy Rating Scale (UMSARS). Mov Disord [Internet] 2004; 19(12):1391-402) were evaluated. […] Results are shown in FIG. 3A (at Weeks 12, 24, 36, and 48) and FIG. 4 (at Week 48).
Changes (LS mean) of a UMSARS part 1 score (unified multiple-system atrophy rating scale part 1; Wenning G K, Tison F, Seppi K, et al. Development and validation of the Unified Multiple System Atrophy Rating Scale (UMSARS). Mov Disord [Internet] 2004; 19(12):1391-402), the Barthel index (Barthel index: Mahoney F I, Barthel D W. Functional evaluation: The Barthel index. Md State Med J [Internet] 1965; 14:61-5. Available from:http://www.ncbi.nlm.nih.gov/pubmed/14258950) (FIG. 3B), a SARA score (Schmitz-Huebsch T, du Montcel S T, Baliko L, Berciano J, Boesch S, Depondt C, Giunti P, Globas C, Infante J, Kang J S, Kremer B, Mariotti C, Melegh B, Pandolfo M, Rakowicz M, Ribai P, Rola R, Schoels L, Szymanski S, van de Warrenburg B P, Duerr A, Klockgether T, Fancellu R. Scale for the assessment and rating of ataxia:development of a new clinical scale. Neurology. 2006 Jun. 13; 66(11):1717-20. doi: 10.1212/01.wnl.0000219042.60538.92), and a 10-meter walking time (second) at Week 48 from baselines was evaluated (FIG. 4).

familial MSA patient = conditions: cited from earlier work
[2] = cited from earlier work
[3] = Phase 1 clinical trial: plasma concentration of drug in repeated oral administration for 14 days; format: in vivo, human; conditions: for Maximum plasma concentration of the MSA-01: 6 hours after repeated oral administration for 14 days (318 hour)
Method: (Measurement of Plasma Concentration of Drug in Repeated Oral Administration for 14 Days)
The MSA-01 was subjected to the oral administration to healthy subjects at doses of 900 mg, 1,200 mg, and 1,500 mg repeatedly for 14 days. […] Maximum plasma concentrations of the MSA-01 detected were 10.24, 9.38, and 15.22 μg/mL in 900 mg, 1,200 mg, and 1,500 mg groups, respectively, in measurement after 6 hours from the repeated oral administration for 14 days (a value at 318 hour in FIG. 1). Published baselines of the plasma concentration of the ubiquinol are 0.87 and […] (% Reduced CoQ10: 98.9 and 85%) (Langsjoen, et al. Comparison study of plasma coenzyme Q10 levels in healthy subjects supplemented with ubiquinol versus ubiquinone. Clin Pharmacol Drug Dev. 2014; 3(1):13-17, Onur et al. Determination of the coenzyme Q10 status in a large Caucasian study population. Biofactors 2015; 41(4):211-21), and it is estimated that MSA-01 in the plasma increased about 20-fold from the baselines in the 1500 mg group in the test.

[4] = intravenous administration to a rat; cited from earlier work
[5] = oral administration to a human; cited from earlier work
[6] = Week 48, compared to the placebo group
[7] = first cited value (Langsjoen et al. 2014)
[8] = second cited value (Onur et al. 2015)

| Maximum plasma concentration of the MSA-01 ([3]; 900 mg group) | Maximum plasma concentration of the MSA-01 ([3]; 1,200 mg group) | increase of MSA-01 in the plasma from the baselines ([3]; 1500 mg group, versus published baselines) | Maximum plasma concentration of the MSA-01 ([3]; 1,500 mg group) | plasma concentration of the MSA-01 until 24 hours after the administration ([3]; healthy subjects, oral 900, 1,200 and 1,500 mg, quantification limit printed 1 g/mL) | time of repeated administration to reach steady state of plasma concentration ([3]; healthy subjects, repeated oral administration 900-1,500 mg) | Compound | Change (LS mean) of 10-meter walking time from baseline [1, 6] | Change (LS mean) of SARA score from baseline [1, 6] | Change (LS mean) of the Barthel index from baseline [1, 6] | difference of LS mean change of UMSARS part 2 score, MSA-01 group versus placebo group ([1]; Week 48, 95% confidence interval −3.24 to −0.24, P=0.023) | Change (LS mean) of UMSARS part 2 score from the baseline ([1]; Week 48, MSA-01 ascending to 1,500 mg/day oral once per day, placebo 7.14) | clinical evaluation scale (familial MSA patient; 600 mg 2 weeks, 840 mg 2 weeks, 1,200 mg 2 weeks, once per day from a gastrostomy tube) | brain oxygen consumption rate (familial MSA patient; one familial MSA patient, ubiquinol above conventional dose) | % Reduced CoQ10 [2, 7] | Published baseline of the plasma concentration of the ubiquinol [2, 7] | % Reduced CoQ10 [2, 8] | Published baseline of the plasma concentration of the ubiquinol [2, 8] | ubiquinol (reduced) present in plasma after ubiquinone administration [4] | ubiquinol (reduced) present in plasma after ubiquinone administration [5] |
| --- | --- | --- | --- | --- | --- | --- | --- | --- | --- | --- | --- | --- | --- | --- | --- | --- | --- | --- | --- |
| 10.24 µg/mL | 9.38 µg/mL | about 20 fold | 15.22 µg/mL | extremely low | about 7 days | COC1=C(OC)C(O)C(C/C=C(\C)CC/C=C(\C)CC/C=C(\C)CC/C=C(\C)CC/C=C(\C)CC/C=C(\C)CC/C=C(\C)CC/C=C(\C)CC/C=C(\C)CCC=C(C)C)=C(C)C1O (stereo not shown) [MSA-01, 2-[(2E,6E,10E,14E,18E,22E,26E,30E,34E)-3,7,11,15,19,23,27,31,35,39-decamethyltetraconta-2,6,10,14,18,22,26,30,34,38-decaenyl]-5,6-dimethoxy-3-methylcyclohexa-2,5-diene-1,4-diol] | effects were shown | effects were shown | effects were shown | −1.74 | 5.40 | no statistically significant changes | improved brain oxygen consumption rate | 98.9% | 0.87 µg/mL | 85% | 0.66 µg/mL | – | – |
| – | – | – | – | – | – | COC1=C(OC)C(=O)C(C/C=C(\C)CC/C=C(\C)CC/C=C(\C)CC/C=C(\C)CC/C=C(\C)CC/C=C(\C)CC/C=C(\C)CC/C=C(\C)CC/C=C(\C)CCC=C(C)C)=C(C)C1=O [ubiquinone] | – | – | – | – | – | – | – | – | – | – | – | ≥ 95% | ≥ 95% |
